Measured values from patent US4570013A, “Biphenylylalkanoic acid derivatives, methods of preparation and pharmaceutical compositions therefrom” (Dr. L. Zambeletti S.p.A., priority 1983, dated 1986).
pIC50: −log10 of the molar value. Read-outs that look alike come from different tables or passages of the source.

Key:
[1] = system: oedema induced in the rats' paw by intradermic injection of carrageenin; experiment: carrageenin-induced paw oedema (method of Winter), antiinflammatory activity; format: in vivo; details: Rattus norvegicus, po
[2] = system: writhings caused by 2-phenylparabenzoquinone in mice; experiment: writhing test (method of Siegmund), 2-phenylparabenzoquinone, analgesic activity; format: in vivo, Swiss mice; details: for Contorsions % (change vs controls) / No. Contorsions: orally at ED50: biphenylylacetic acid 12, Ia 32 mg/kg; for ED50: Mus musculus, po
Description: The analgesic activity has been studied according to the method described by Siegmund (E. Siegmund et al, Proc. Soc. Exptl. Biol. Med., 95, 729 (1957)), according to which the algogenic stimulus consists of the intraperitoneal injection of 2-phenylparabenzoquinone and the algesia manifests itself in repeated abdominal contractions with an extension of the rear limbs and contorsions of the body ("writhing test").

[3] = system: protective activity in the hot plate test; experiment: hot plate test, central analgesic activity; format: in vivo; details: up to 200 mg/kg^-1 orally, mice
[4] = system: Hyperthermia caused by brewer's yeast in rats; experiment: brewer's yeast hyperthermia (method of C. Winter), antipyretic activity; format: in vivo; details: for ED50: Rattus norvegicus, po
Description: The antipyretic activity has been studied according to the method of C. Winter, Toxicol. and Appl. Pharmacol., 5, 247 (1963), in rats, by determining the ability of the substance to reduce the increase of body temperature caused by the subcutaneous administration of brewer's yeast.

[5] = system: platelet aggregation induced by arachidonic acid; experiment: platelet aggregation induced by arachidonic acid in vitro (method of Born); format: cell-based, guinea pigs; details: guinea pig platelet-enriched plasma
Description: The activity of compound Ia on the metabolism of arachidonic acid has been studied in virto according to the method described by B. Fjalland, J. Pharm. Pharmacol., 26, 448 (1974). In these tests the compound being examined is capable of inhibiting the synthesis of prostaglandin and thromboxane caused by arachidonic acid (AA) incubated with lung tissue of guinea pigs (IC50 =0.05 mM). The activity on the platelet aggregation induced by arachidonic acid has been determined in vitro on plasma enriched with platelets of guinea pigs according to the method described by G. V. R. Born, Nature 194, 927 (1962).

[6] = system: aggregating action of arachidonic acid; experiment: ex vivo study of aggregating action of arachidonic acid after oral administration; format: in vivo; details: guinea pigs, oral dose equal to antiinflammatory ED50
[7] = system: Salmonella thyphimurium TA 1535; TA 1538; TA 100; TA 98; experiment: Ames test, mutagenic action; format: cell-based; details: with and without metabolic activation, up to 5000 μg per plate
acute toxicity (DL50) = details: mouse, in vivo
Description: Finally, the following values of DL50 have been determined in mice for compound Ia: […]

in vivo = details: rat, po
[8] = gastrolesive action after single doses; details: rat, in vivo

Q: With `COc1ccccc1OCC(O)COC(=O)Cc1ccc(-c2ccccc2)cc1` (stereo not drawn) [Compound Ia, 1-Biphenylylacetoxy-3-(2-methoxyphenoxy)-propan-2-ol] as the compound, how does the ED50 ([1]; orally, read-out: effective dose ED50, antiedemigenic (antiinflammatory) activity) read?
A: 22.5 mg/kg

Q: And the “onset of analgesic activity after administration” value ([2]; 32 mg/kg orally, mice)?
A: 15 min

Q: And the “Contorsions % (change vs controls)” value ([2]; 5 minutes)?
A: -28%

Q: What about the “No. Contorsions” value ([2]; 5 minutes) of the same compound?
A: 33.1 ± 4.1

Q: What about the “Contorsions % (change vs controls)” value ([2]; 15 minutes) of the same compound?
A: -33%

Q: And the “No. Contorsions” value ([2]; 15 minutes)?
A: 35.1 ± 3.4

Q: What about the “Contorsions % (change vs controls)” value ([2]; 30 minutes) of the same compound?
A: -54%

Q: And the “No. Contorsions” value ([2]; 30 minutes)?
A: 22.7 ± 2.4

Q: What about the “Contorsions % (change vs controls)” value ([2]; 1 hour) of the same compound?
A: -47%

Q: And the “No. Contorsions” value ([2]; 1 hour)?
A: 26.8 ± 3.3

Q: And the “Contorsions % (change vs controls)” value ([2]; 2 hours)?
A: -46%

Q: What about the “No. Contorsions” value ([2]; 2 hours) of the same compound?
A: 25.4 ± 3.8

Q: What about the “Contorsions % (change vs controls)” value ([2]; 3 hours) of the same compound?
A: -44%

Q: And the “No. Contorsions” value ([2]; 3 hours)?
A: 27.6 ± 3.4

Q: What about the “Contorsions % (change vs controls)” value ([2]; 4 hours) of the same compound?
A: -31%

Q: What about the “No. Contorsions” value ([2]; 4 hours) of the same compound?
A: 33.5 ± 3.6

Q: What about the “Contorsions % (change vs controls)” value ([2]; 5 hours) of the same compound?
A: -1%

Q: What about the “No. Contorsions” value ([2]; 5 hours) of the same compound?
A: 45.0 ± 3.2

Q: And the ED50 ([2]; mice, orally, read-out: ED50, analgesic activity (writhing test))?
A: 32 mg/kg

Q: And the “protective activity in the hot plate test (central analgesic activity)” value [3]?
A: has not shown any protective activity

Q: And the “Temperature after administration of the substance, t” value (shortened to “Temperature after administration”) ([4]; 6 mg/kg os, 1 h)?
A: 38.01±0.07 °C

Q: What about the “Temperature change Δt after administration of the substance” value (shortened to “Temperature change Δt”) ([4]; 6 mg/kg os, 1 h) of the same compound?
A: -0.63 °C

Q: And the “Temperature after administration” value ([4]; 6 mg/kg os, 2 h)?
A: 37.71±0.09 °C

Q: What about the “Temperature change Δt” value ([4]; 6 mg/kg os, 2 h) of the same compound?
A: -0.75 °C

Q: What about the “P/S, ratio of protected animals with respect to total screened animals” value (from here on “P/S, ratio of protected animals”) ([4]; 6 mg/kg os, 3 h) of the same compound?
A: 1/10

Q: And the “Temperature after administration” value ([4]; 6 mg/kg os, 3 h)?
A: 37.70 °C

Q: What about the “Temperature change Δt” value ([4]; 6 mg/kg os, 3 h) of the same compound?
A: -0.69 °C

Q: What about the “Temperature after administration” value ([4]; 6 mg/kg os, 4 h) of the same compound?
A: 37.85±0.14 °C

Q: And the “Temperature change Δt” value ([4]; 6 mg/kg os, 4 h)?
A: -0.45 °C

Q: What about the “Temperature after administration” value ([4]; 6 mg/kg os, 5 h) of the same compound?
A: 38.07±0.15 °C

Q: And the “Temperature change Δt” value ([4]; 6 mg/kg os, 5 h)?
A: -0.19 °C

Q: And the “Temperature after administration” value ([4]; 6 mg/kg os, 6 h)?
A: 38.10 °C

Q: And the “Temperature change Δt” value ([4]; 6 mg/kg os, 6 h)?
A: -0.14 °C

Q: What about the “Temperature after administration” value ([4]; 12 mg/kg os, 1 h) of the same compound?
A: 37.81±0.06 °C

Q: What about the “Temperature change Δt” value ([4]; 12 mg/kg os, 1 h) of the same compound?
A: -0.83 °C

Q: And the “Temperature after administration” value ([4]; 12 mg/kg os, 2 h)?
A: 37.40±0.05 °C

Q: What about the “Temperature change Δt” value ([4]; 12 mg/kg os, 2 h) of the same compound?
A: -1.06 °C

Q: And the “P/S, ratio of protected animals” value ([4]; 12 mg/kg os, 3 h)?
A: 4/10

Q: And the “Temperature after administration” value ([4]; 12 mg/kg os, 3 h)?
A: 37.32±0.08 °C

Q: And the “Temperature change Δt” value ([4]; 12 mg/kg os, 3 h)?
A: -1.07 °C

Q: What about the “Temperature after administration” value ([4]; 12 mg/kg os, 4 h) of the same compound?
A: 37.41±0.07 °C

Q: What about the “Temperature change Δt” value ([4]; 12 mg/kg os, 4 h) of the same compound?
A: -0.89 °C

Q: What about the “Temperature after administration” value ([4]; 12 mg/kg os, 5 h) of the same compound?
A: 37.66±0.09 °C

Q: And the “Temperature change Δt” value ([4]; 12 mg/kg os, 5 h)?
A: -0.50 °C

Q: What about the “Temperature after administration” value ([4]; 12 mg/kg os, 6 h) of the same compound?
A: 37.88±0.07 °C

Q: What about the “Temperature change Δt” value ([4]; 12 mg/kg os, 6 h) of the same compound?
A: -0.36 °C

Q: What about the “Temperature after administration” value ([4]; 24 mg/kg os, 1 h) of the same compound?
A: 37.66±0.05 °C

Q: And the “Temperature change Δt” value ([4]; 24 mg/kg os, 1 h)?
A: -0.98 °C

Q: And the “Temperature after administration” value ([4]; 24 mg/kg os, 2 h)?
A: 37.31±0.05 °C

Q: What about the “Temperature change Δt” value ([4]; 24 mg/kg os, 2 h) of the same compound?
A: -1.15 °C

Q: What about the “P/S, ratio of protected animals” value ([4]; 24 mg/kg os, 3 h) of the same compound?
A: 8/10

Q: What about the “Temperature after administration” value ([4]; 24 mg/kg os, 3 h) of the same compound?
A: 37.13±0.06 °C

Q: What about the “Temperature change Δt” value ([4]; 24 mg/kg os, 3 h) of the same compound?
A: -1.26 °C

Q: And the “Temperature after administration” value ([4]; 24 mg/kg os, 4 h)?
A: 37.16±0.06 °C

Q: And the “Temperature change Δt” value ([4]; 24 mg/kg os, 4 h)?
A: -1.14 °C

Q: What about the “Temperature after administration” value ([4]; 24 mg/kg os, 5 h) of the same compound?
A: 37.34±0.05 °C

Q: What about the “Temperature change Δt” value ([4]; 24 mg/kg os, 5 h) of the same compound?
A: -0.92 °C

Q: And the “Temperature after administration” value ([4]; 24 mg/kg os, 6 h)?
A: 37.55±0.06 °C

Q: What about the “Temperature change Δt” value ([4]; 24 mg/kg os, 6 h) of the same compound?
A: -0.69 °C

Q: And the ED50 ([4]; rats, orally, read-out: ED50, antipyretic activity)?
A: 14 mg/kg

Q: And the “duration of antipyretic activity” value ([4]; rats, orally)?
A: continues after the sixth hour

Q: What about the “onset of antipyretic activity after the treatment” value ([4]; rats, orally) of the same compound?
A: within one hour after the treatment

Q: And the pIC50 ([5]; Cavia porcellus, read-out: IC50, anti aggregating activity)?
A: 3.91

Q: And the “anti aggregating activity, concentration dependence” value [5]?
A: proportional to the concentration used

Q: And the “duration of decrease in aggregating action of arachidonic acid” value [6]?
A: remains up to the fifth hour

Q: What about the “start of decrease in aggregating action of arachidonic acid after administration” value [6] of the same compound?
A: starts three hours after the administration

Q: And the “mutagenic action (Ames test)” value [7]?
A: has not shown any mutagenic action

Q: And the LD50 (acute toxicity (DL50); ip, read-out: DL50 ip)?
A: 260 mg/kg

Q: What about the LD50 (acute toxicity (DL50); po, read-out: DL50 orally) of the same compound?
A: 3330 mg/kg

Q: What about the TD50 (in vivo) of the same compound?
A: 61.7 mg/kg

Q: And the selectivity ratio [8]?
A: 2 to 4

Q: For `O=C(Cc1ccc(-c2ccccc2)cc1)Nc1ccccn1` [Diphenpyramide, N-2-pyridinyl-(1,1'-biphenyl)-4-acetamide], which ED50 ([1]; os, read-out: Antiinflammatory activity (oedema caused by carrageenin in rats) ED50) is on record?
A: 19.9 mg/kg

Q: And the ED50 ([2]; read-out: Analgesic activity (against pain caused by 2-phenyl-p-benzo-quinone in mice) ED50)?
A: 97 mg/kg

Q: And the ED50 ([4]; rats, os, read-out: Antipyretic activity (temperature increase by brewer's yeast, in rats) ED50)?
A: 22.5 mg/kg

Q: And the TD50 (in vivo)?
A: 76 mg/kg
